For this test, the target named is BRAF^V600E protein (Homo sapiens, UniProt P15056, V600E). The experiment in a line: HiBiT cellular BRAF V600E degradation assay. The class given is cell-based. The following applies: 24 h incubation; for DC50: A375.10 cells (HiBiT tag knocked in at N-terminal of BRAF V600E), concentration at which 50% of total cellular BRAF V600E is degraded; for Emax: A375.10 cells, Emax = amount of residual protein remaining in the cell after compound treatment, read-out: HiBit 24 h Emax. An excerpt: DMEM no-phenol red medium supplemented with L-glutamine was purchased from (Corning). Fetal bovine serum (FBS) was purchased from Gibco (Grand Island, NY, USA). Nano-Glo® HiBiT Lytic Assay Buffer & Reagents were purchased from Promega (Madison, WI, USA). […] Cell culture flasks and 384-well black flat-bottom polystyrene TC-treated microplates were acquired from Corning (Corning, NY, USA).
BRAF^V600E protein, sequence (P15056 whole entry V600E): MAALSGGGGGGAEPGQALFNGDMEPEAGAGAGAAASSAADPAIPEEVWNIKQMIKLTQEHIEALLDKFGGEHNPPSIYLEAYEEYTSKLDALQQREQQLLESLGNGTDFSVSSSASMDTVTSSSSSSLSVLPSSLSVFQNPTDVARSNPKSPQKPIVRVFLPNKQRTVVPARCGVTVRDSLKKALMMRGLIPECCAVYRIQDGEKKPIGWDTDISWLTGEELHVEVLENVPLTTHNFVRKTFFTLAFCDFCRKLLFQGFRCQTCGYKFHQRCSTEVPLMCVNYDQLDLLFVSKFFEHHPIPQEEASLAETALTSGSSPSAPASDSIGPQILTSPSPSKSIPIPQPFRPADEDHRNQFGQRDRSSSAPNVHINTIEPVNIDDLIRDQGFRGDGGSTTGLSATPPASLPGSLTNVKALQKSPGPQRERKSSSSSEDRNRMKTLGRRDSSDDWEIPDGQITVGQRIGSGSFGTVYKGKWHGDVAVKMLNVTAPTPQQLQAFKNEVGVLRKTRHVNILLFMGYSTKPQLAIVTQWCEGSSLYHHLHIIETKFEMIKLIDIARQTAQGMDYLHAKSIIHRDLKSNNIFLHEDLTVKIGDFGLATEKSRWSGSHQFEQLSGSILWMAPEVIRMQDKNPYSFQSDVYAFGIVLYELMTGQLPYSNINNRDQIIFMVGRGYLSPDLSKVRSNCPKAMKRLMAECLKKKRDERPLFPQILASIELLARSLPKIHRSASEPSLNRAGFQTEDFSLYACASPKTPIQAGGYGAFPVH
HiBiT Cellular BRAFv^600E Degradation Assay
Prior to the assay, the A375.10 cell line is maintained in DMEM no-phenol red medium supplemented with 10% fetal bovine serum (FBS). […] Briefly, test compounds were added to the 384-well plate from a top concentration of 10 μM with 11 half log dilutions of compound, plated in duplicate. Then, 30 uL of a suspension of A375.10 cell lines was dispensed into columns 1-24 of the 384-well plates at a cell density of 7500 cells per well. The plates were kept at 37° C. with 5% CO2 for the duration of the assay (6 or 24 hr). After the desired incubation time with compound, 30 uL of Nano-Glo® HiBiT Lytic Buffer containing LgBiT protein (diluted 1:100) and luminescence substrate (diluted 1:50) were added to the cells in columns 1-23 of the assay plate. The plate was the incubated for 30 min on the bench at room temperature. Finally, HiBiT luminescence signal was acquired on EnVision™ Multilabel Reader (PerkinElmer, Santa Clara, CA, USA).
Quantification of luminescence responses measured in the presence of compound were normalized to a high signal/no degradation control (untreated cells+lytic detection reagent) and a low signal/full degradation control (untreated cells, no lytic detection reagent). Data were analyzed with a 4-parameter logistic fit to generate sigmoidal dose-response curves. […] The Emax, or maximum effect of each compound, represents the amount of residual protein remaining in the cell following compound treatment.

Turning to `CCN(C)S(=O)(=O)Nc1ccc(F)c(C(=O)c2c[nH]c3ncc(-c4ccc(CN5CCN(C(=O)CN6CCC(c7ccc(NC8CCC(=O)NC8=O)cc7)CC6)CC5)nc4)cc23)c1F` (stereo not drawn) [Example A9, 5-[6-[[4-[2-[4-[4-[(2,6-Dioxopiperidin-3-yl)amino]phenyl]piperidin-1-yl]acetyl]piperazin-1-yl]methyl]pyridin-3-yl]-3-[3-[[ethyl(methyl)sulfamoyl]amino]-2,6-difluorobenzoyl]-1H-pyrrolo[2,3-b]pyridine], it took 30 nM to reach half-maximal degradation (DC50) and the Emax worked out at 14%.

On to `CCN(C)S(=O)(=O)Nc1cccc(C(=O)c2c[nH]c3ncc(-c4ccc(N5CCN(C(=O)CC6(O)CCN(c7ccc(NC8CCC(=O)NC8=O)cn7)CC6)CC5)cc4)cc23)c1F` (stereo not drawn) [Example 117, 5-[4-[4-[2-[1-[5-[(2,6-dioxo-3-piperidyl)amino]-2-pyridyl]-4-hydroxy-4-piperidyl]acetyl]piperazin-1-yl]phenyl]-3-[3-[[ethyl(methyl)sulfamoyl]amino]-2-fluoro-benzoyl]-1H-pyrrolo[2,3-b]pyridine], for which the half-maximal degradation concentration (DC50) was 23.1 nM and the Emax came out at 25.3%.

Consider `CCN(C)S(=O)(=O)Nc1ccc(F)c(C(=O)c2c[nH]c3ncc(-c4ccc(N5CCN(C(=O)CC6(O)CCN(c7ccc(NC8CCC(=O)NC8=O)cn7)CC6)CC5)nc4)cc23)c1F` (stereo not drawn) [Example 78, 5-[6-[4-[2-[1-[5-[(2,6-dioxo-3-piperidyl)amino]-2-pyridyl]-4-hydroxy-4-piperidyl]acetyl]piperazin-1-yl]-3-pyridyl]-3-[3-[[ethyl(methyl)sulfamoyl]amino]-2,6-difluoro-benzoyl]-1H-pyrrolo[2,3-b]pyridine], for which the DC50 worked out at 9.89 nM and the Emax came out at 23.3%.

Regarding `CCN(C)S(=O)(=O)Nc1ccc(F)c(C(=O)c2c[nH]c3ncc(-c4cnc(N5CCN(C(=O)CN6CCC(c7ccc(NC8CCC(=O)NC8=O)cc7C(F)F)CC6)CC5)nc4)cc23)c1F` (stereo not drawn) [Example 39, 5-[2-[4-[2-[4-[2-(difluoromethyl)-4-[(2,6-dioxo-3-piperidyl)amino]phenyl]-1-piperidyl]acetyl]piperazin-1-yl]pyrimidin-5-yl]-3-[3-[[ethyl(methyl)sulfamoyl]amino]-2,6-difluoro-benzoyl]-1H-pyrrolo[2,3-b]pyridine], the DC50 stood at 10.2 nM and the Emax came out at 8.74%.

As for `CCN(C)S(=O)(=O)Nc1ccc(F)c(C(=O)c2c[nH]c3ncc(-c4cnc(N5CCN(C(=O)CC6(O)CCN(c7ccc(N8CCC(=O)NC8=O)cc7F)CC6)CC5)nc4)cc23)c1F` [Example 167, 5-[2-[4-[2-[1-[4-(2,4-dioxohexahydropyrimidin-1-yl)-2-fluoro-phenyl]-4-hydroxy-4-piperidyl]acetyl]piperazin-1-yl]pyrimidin-5-yl]-3-[3-[[ethyl(methyl)sulfamoyl]amino]-2,6-difluoro-benzoyl]-1H-pyrrolo[2,3-b]pyridine], the 50% degradation concentration (DC50) worked out at 7.05 nM and the Emax worked out at 9.37%.

For `CCN(C)S(=O)(=O)Nc1ccc(F)c(C(=O)c2c[nH]c3ncc(-c4ccc(N5CCN(C(=O)CN6CCC(N7CCN(C8CCC(=O)NC8=O)C(=O)C7)C(F)(F)C6)CC5)nc4)cc23)c1F` (stereo not drawn) [Example 171, 5-[6-[4-[2-[4-[4-(2,6-dioxo-3-piperidyl)-3-oxo-piperazin-1-yl]-3,3-difluoro-1-piperidyl]acetyl]piperazin-1-yl]-3-pyridyl]-3-[3-[[ethyl(methyl)sulfamoyl]amino]-2,6-difluoro-benzoyl]-1H-pyrrolo[2,3-b]pyridine], the DC50 worked out at 5.87 nM and the Emax was determined as 7.61%.

Consider `CCN(C)S(=O)(=O)Nc1ccc(Cl)c(C(=O)c2c[nH]c3ncc(-c4cnc(N5CCN(C(=O)CC6(O)CCN(c7ccc(NC8CCC(=O)NC8=O)cc7F)CC6)CC5)nc4)cc23)c1F` (stereo not drawn) [Example 185, 3-[6-chloro-3-[[ethyl(methyl)sulfamoyl]amino]-2-fluoro-benzoyl]-5-[2-[4-[2-[1-[4-[(2,6-dioxo-3-piperidyl)amino]-2-fluoro-phenyl]-4-hydroxy-4-piperidyl]acetyl]piperazin-1-yl]pyrimidin-5-yl]-1H-pyrrolo[2,3-b]pyridine], for which half-maximal degradation (DC50) was put at 6.48 nM and the Emax worked out at 7.43%.

As for `CCN(C)S(=O)(=O)Nc1ccc(F)c(C(=O)c2c[nH]c3ncc(-c4cnc(N5CCN(C(=O)CCCN6CCC(c7ccc(NC8CCC(=O)NC8=O)cc7)CC6)CC5)nc4)cc23)c1F` (stereo not drawn) [Example A18, 5-[2-[4-[4-[4-[4-[(2,6-Dioxopiperidin-3-yl)amino]phenyl]piperidin-1-yl]butanoyl]piperazin-1-yl]pyrimidin-5-yl]-3-[3-[[ethyl(methyl)sulfamoyl]amino]-2,6-difluorobenzoyl]-1H-pyrrolo[2,3-b]pyridine], the half-maximal degradation concentration (DC50) is 42 nM and the Emax amounted to 15%.

With `O=C1CCN(c2cccc(C3CCN(CC(=O)N4CCN(c5ccc(-c6cnc7[nH]cc(C(=O)c8c(F)ccc(NS(=O)(=O)N9CCCC9)c8F)c7c6)cc5)CC4)CC3)c2)C(=O)N1` [Example A88, N-[3-[5-[4-[4-[2-[4-[3-(2,4-Dioxo-1,3-diazinan-1-yl)phenyl]piperidin-1-yl]acetyl]piperazin-1-yl]phenyl]-1H-pyrrolo[2,3-b]pyridine-3-carbonyl]-2,4-difluorophenyl]pyrrolidine-1-sulfonamide], the half-maximal degradation concentration (DC50) turned out to be 52 nM and the Emax worked out at 26%.

`CCN(C)S(=O)(=O)Nc1ccc(F)c(C(=O)c2c[nH]c3ncc(-c4cnc(N5CC[C@@H](C(=O)N6CCC(c7ccc(NC8CCC(=O)NC8=O)cc7)CC6)C5)nc4)cc23)c1F` (stereo partly drawn) [Example 129, 5-[2-[(3R)-3-[4-[4-[(2,6-dioxo-3-piperidyl)amino]phenyl]piperidine-1-carbonyl]pyrrolidin-1-yl]pyrimidin-5-yl]-3-[3-[[ethyl(methyl)sulfamoyl]amino]-2,6-difluoro-benzoyl]-1H-pyrrolo[2,3-b]pyridine]: it took 5.11 nM to reach half-maximal degradation (DC50) and the Emax was determined as 13.8%.

`CCN(C)S(=O)(=O)Nc1ccc(F)c(C(=O)c2c[nH]c3ncc(-c4ccc(N5CCN(C(=O)CC6(O)CCN(c7ccc8c(N9CCC(=O)NC9=O)nn(C)c8c7)CC6)CC5)nc4)cc23)c1F` [Example 193, 3-(2,4-dioxohexahydropyrimidin-1-yl)-6-[4-[2-[4-[5-[3-[3-[[ethyl(methyl)sulfamoyl]amino]-2,6-difluoro-benzoyl]-1H-pyrrolo[2,3-b]pyridin-5-yl]-2-pyridyl]piperazin-1-yl]-2-oxo-ethyl]-4-hydroxy-1-piperidyl]-1-methyl-indazole]: the DC50 came out at 1.7 nM and the Emax came to 7.39%.

For the compound `O=C1CCC(Nc2ccc(C3CCN(CC(=O)N4CCN(c5ccc(-c6cnc7[nH]cc(C(=O)c8c(F)ccc(NS(=O)(=O)N9CCCC9)c8F)c7c6)cc5)CC4)CC3)cc2)C(=O)N1` (stereo not drawn) [Example A48, N-[3-[5-[4-[4-[2-[4-[4-[(2,6-Dioxopiperidin-3-yl)amino]phenyl]piperidin-1-yl]acetyl]piperazin-1-yl]phenyl]-1H-pyrrolo[2,3-b]pyridine-3-carbonyl]-2,4-difluorophenyl]pyrrolidine-1-sulfonamide], it took 5 nM to reach half-maximal degradation (DC50) and the Emax came to 12%.

Source of the values: patent US12559492B2, “BRAF degraders” (C4 Therapeutics, Inc., priority 2020, dated 2026).
